In the NIST ThermoML archive (doi:10.1016/j.tca.2005.04.030):
Numbers after ± are expanded uncertainties.

What was measured:
[1] = refractive index (Na D-line) (dimensionless); xn = mol fraction of the nth substance listed; settings: 298 K, 101 kPa, Liquid, ATAGO RX-1000
[2] = xn = mol fraction of the nth substance listed; settings: 298 K, 101 kPa, Liquid; for speed of sound: Anton Paar DSA 48; for mass density: Vibrating tube method

CCCCOC(C)(C)C [butane, 1-(1,1-dimethylethoxy)-] + CCO
Settings | mass density, [2] [kg/m3] | refractive index, [1] | speed of sound, [2] [m/s]
x1 = 0.0493 | 782.41 ± 0.22 | 1.36389 ± 0.0001 | 1141 ± 1
x1 = 0.0589 | 781.92 ± 0.22 | 1.36463 ± 0.0001 | 1139 ± 1
x1 = 0.0797 | 780.9 ± 0.22 | 1.36652 ± 0.0001 | 1139 ± 1
x1 = 0.1006 | 779.92 ± 0.22 | 1.36783 ± 0.0001 | 1136 ± 1
x1 = 0.1555 | 777.57 ± 0.21 | 1.37143 ± 0.0001 | 1133 ± 1
x1 = 0.1947 | 776.05 ± 0.21 | 1.37365 ± 9e-05 | 1132 ± 1
x1 = 0.1978 | 775.98 ± 0.21 | 1.37382 ± 9e-05 | 1132 ± 1
x1 = 0.2528 | 773.99 ± 0.2 | 1.3765 ± 9e-05 | 1129 ± 1
x1 = 0.2923 | 772.71 ± 0.2 | 1.37818 ± 9e-05 | 1127 ± 1
x1 = 0.2967 | 772.6 ± 0.2 | 1.37834 ± 9e-05 | 1128 ± 1
x1 = 0.3512 | 770.96 ± 0.19 | 1.38037 ± 8e-05 | 1125 ± 1
x1 = 0.3966 | 769.83 ± 0.19 | 1.38183 ± 8e-05 | 1124 ± 1
x1 = 0.397 | 769.71 ± 0.19 | 1.38186 ± 8e-05 | 1124 ± 1
x1 = 0.4313 | 768.83 ± 0.18 | 1.38287 ± 8e-05 | 1123 ± 1
x1 = 0.4999 | 767.3 ± 0.18 | 1.38462 ± 7e-05 | 1122 ± 1
x1 = 0.5118 | 766.95 ± 0.17 | 1.38494 ± 7e-05 | 1121 ± 1
x1 = 0.559 | 765.94 ± 0.17 | 1.38599 ± 7e-05 | 1120 ± 1
x1 = 0.5953 | 765.3 ± 0.18 | 1.38674 ± 7e-05 | 1119 ± 1
x1 = 0.5964 | 765.18 ± 0.17 | 1.38674 ± 7e-05 | 1119 ± 1
x1 = 0.6627 | 763.92 ± 0.16 | 1.38795 ± 6e-05 | 1118 ± 1
x1 = 0.6853 | 763.6 ± 0.15 | 1.38828 ± 6e-05 | 1120 ± 1
x1 = 0.7044 | 763.16 ± 0.15 | 1.38862 ± 6e-05 | 1118 ± 1
x1 = 0.7441 | 762.45 ± 0.15 | 1.3892 ± 6e-05 | 1117 ± 1
x1 = 0.7814 | 761.8 ± 0.15 | 1.3897 ± 6e-05 | 1117 ± 1
x1 = 0.7853 | 761.72 ± 0.15 | 1.38986 ± 6e-05 | 1118 ± 1
x1 = 0.8493 | 760.58 ± 0.14 | 1.3905 ± 5e-05 | 1116 ± 1
x1 = 0.9072 | 759.5 ± 0.14 | 1.39106 ± 5e-05 | 1115 ± 1
x1 = 0.9404 | 758.85 ± 0.14 | 1.39132 ± 5e-05 | 1115 ± 1

CCCCOC(C)(C)C [butane, 1-(1,1-dimethylethoxy)-] + CO
Settings | mass density, [2] [kg/m3] | refractive index, [1] | speed of sound, [2] [m/s]
x1 = 0.0406 | 783.42 ± 0.22 | 1.33673 ± 0.00011 | 1103 ± 1
x1 = 0.0518 | 782.76 ± 0.22 | 1.33916 ± 0.00011 | 1104 ± 1
x1 = 0.0974 | 780.08 ± 0.22 | 1.34774 ± 0.0001 | 1103 ± 1
x1 = 0.0984 | 779.91 ± 0.22 | 1.34786 ± 0.0001 | 1104 ± 1
x1 = 0.1493 | 777.55 ± 0.21 | 1.35545 ± 0.0001 | 1105 ± 1
x1 = 0.198 | 775.42 ± 0.21 | 1.36125 ± 0.0001 | 1107 ± 1
x1 = 0.2051 | 775.26 ± 0.21 | 1.36198 ± 0.0001 | 1107 ± 1
x1 = 0.2448 | 773.83 ± 0.2 | 1.3658 ± 9e-05 | 1108 ± 1
x1 = 0.2974 | 772.2 ± 0.2 | 1.37001 ± 9e-05 | 1109 ± 1
x1 = 0.3373 | 770.98 ± 0.19 | 1.37281 ± 9e-05 | 1109 ± 1
x1 = 0.3581 | 770.41 ± 0.19 | 1.37411 ± 8e-05 | 1109 ± 1
x1 = 0.3783 | 769.88 ± 0.19 | 1.37529 ± 8e-05 | 1109 ± 1
x1 = 0.3922 | 769.7 ± 0.19 | 1.37605 ± 8e-05 | 1111 ± 1
x1 = 0.4633 | 767.85 ± 0.18 | 1.37952 ± 8e-05 | 1111 ± 1
x1 = 0.4954 | 767.15 ± 0.18 | 1.38087 ± 7e-05 | 1113 ± 1
x1 = 0.5003 | 767.05 ± 0.18 | 1.38106 ± 7e-05 | 1111 ± 1
x1 = 0.5598 | 765.86 ± 0.17 | 1.38325 ± 7e-05 | 1112 ± 1
x1 = 0.5955 | 765.21 ± 0.16 | 1.3845 ± 7e-05 | 1114 ± 1
x1 = 0.6138 | 764.85 ± 0.16 | 1.38496 ± 7e-05 | 1113 ± 1
x1 = 0.6463 | 764.27 ± 0.16 | 1.38588 ± 6e-05 | 1113 ± 1
x1 = 0.6737 | 763.79 ± 0.16 | 1.3866 ± 6e-05 | 1114 ± 1
x1 = 0.6923 | 763.48 ± 0.15 | 1.38706 ± 6e-05 | 1114 ± 1
x1 = 0.721 | 762.99 ± 0.15 | 1.38773 ± 6e-05 | 1114 ± 1
x1 = 0.7904 | 761.8 ± 0.14 | 1.38914 ± 6e-05 | 1114 ± 1
x1 = 0.7934 | 761.75 ± 0.14 | 1.38918 ± 6e-05 | 1114 ± 1
x1 = 0.8479 | 760.78 ± 0.14 | 1.3901 ± 5e-05 | 1114 ± 1
x1 = 0.8631 | 760.5 ± 0.14 | 1.39032 ± 5e-05 | 1114 ± 1
x1 = 0.8964 | 759.86 ± 0.14 | 1.3907 ± 5e-05 | 1115 ± 1
x1 = 0.9255 | 759.26 ± 0.14 | 1.39109 ± 5e-05 | 1114 ± 1
